Assay results as given in patent publication US8093028B2, “Engineered glycosyltransferases with expanded substrate specificity” (Wisconsin Alumni Research Foundation, priority 2007, dated 2012).

What was measured:
Type in all cases: biochemical
OleD A242V = target: T1, OleD A242V (Streptomyces antibioticus, UniProt Q53685, A242V/P55A/R82V/R83E/T84P); test: Rate of glucoside formation with acceptors (RP-HPLC); conditions: 200 μM acceptor, 1 mM UDPG
T1 construct: made in house; host or cells: E. coli BL21(DE3)pLysS (error-prone PCR clone in pET28a)
Experimental: (§1) Enzyme assays for the determination of glycosyl transfer rate to FIG. 1: 4, Table 1: 27-32 were carried out in a total volume of 500 μl 50 mM Tris-HCl (pH8.0) containing 5 mM MgCl2, 200 μM acceptor, 1 mM UDPG, and 50 μg pure enzyme. Aliquots (100 μl) were removed between 0 and 30 min, at which time product formation was still linear with respect to time, and quenched with 90 μl of an 8:1 mixture of ice-cold MeOH/HCl, and centrifuged at 14,000 rpm for 10 min. Supernatants were analyzed by analytical reverse-phase HPLC with a 250 mm×4.6 mm Gemini […] C18 column (Phenomenex, Torrance, Calif.) using a gradient of 10-90% CH3CN in 0.1% trifluoroacetic acid (TFA)/H2O in 20 min at 1 ml/min, with detection at 254 nm. HPLC peak areas were integrated, and the product concentration calculated as a percent of the total peak area. Product identity was confirmed by co-elution with a commercial standard when available and, in all cases, by LC-MS (FIG. 8).
(§2) Reaction conditions for assay of macrolide glycosylation were identical to that for FIG. 1: 1, except that typically, less enzyme was used (1-10 μg) and reactions were quenched with an equal volume of ice-cold MeOH. Centrifuged reaction mixtures were analyzed by analytical reverse-phase HPLC with a Gemini 5μ C18 column (Phenomenex) using a gradient of 0-90% CH3CN in 50 mM NH3COOH over 30 min at 1 ml/min. Products and acceptor macrolide were detected by evaporative light scattering detection (ELSD) using a drift tube temperature of 105° C. and a nitrogen flow of 2.5 ml/min. All products were characterized by APCI LC-MS on an Agilent 1100 Series LC/MSD quadrapole mass spectrometer connected to a UV detector. Quenched reaction mixtures were analyzed by reverse-phase HPLC with a 10 mm×4.6 mm Zorbax Extend 5μ C18 Analytical Guard Column (Agilent Technologies) using an isocratic gradient of 80% MeOH in 2 min at 1 ml/min, with detection at 254 nm.
(§3) Enzyme reactions were carried out in a total volume of 500 μl 50 mM Tris-HCl (pH8.0) containing 5 mM MgCl2, 200 μM acceptor, 1 mM UDPG, and 50 μg pure enzyme. Aliquots (100 μl) were removed between 0 and 30 min, and quenched with 90 μl of an 8:1 mixture of ice-cold MeOH/HCl for activity towards FIG. 1: 4, Table 1: 27-32, or with 90 μl of ice-cold MeOH for activity towards FIG. 1: 1, and the samples centrifuged at 14,000 rpm for 10 min.
(§4) For determination of activity to FIG. 1: 4, Table 1: 27-32, supernatants were analyzed by analytical reverse-phase HPLC with a Gemini 5μ C18 column (Phenomenex) using a gradient of 10-90% CH3CN in 0.1% trifluoroacetic acid (TFA)/H2O in 20 min, with detection at 254 nm. HPLC peak areas were integrated, and the product concentration calculated as a percent of the total peak area. All products were characterized by LC-MS. Mass spectra were obtained using electrospray ionization on an Agilent 1100 HPLC-MSD SL quadrapole mass spectrometer connected to a UV/Vis diode array detector. For LC-MS analysis, quenched reaction mixtures (see below) were analyzed by analytical reverse-phase HPLC with a 250 mm×4.6 mm Gemini 5μ C18 column (Phenomenex, Torrance, Calif.) using a gradient of 10-90% CH3CN in 0.1% formic acid/H2O in 20 min at 1 ml/min, with detection at 254 nm.
as §2, with “For determination” for “Reaction conditions for assay”, “activity toward” for “macrolide glycosylation were identical to that for”, “centrifuged” for “except that typically, less enzyme was used (1-10 μg) and reactions were quenched with an equal volume of ice-cold MeOH. Centrifuged”, “Compounds FIG. 1: 1” for “Products”, “3” for “acceptor macrolide”

OleD P67T = target: T2, OleD P67T (Streptomyces antibioticus, UniProt Q53685, P55A/P67T/R82V/R83E/T84P); test: as above; conditions: 200 μM acceptor, 1 mM UDPG
T2 construct: made in house; host or cells: E. coli (site-directed mutant of pET28/OleD)
Experimental: as §1, §2, §3, §4
as §2, with “For determination” for “Reaction conditions for assay”, “activity toward” for “macrolide glycosylation were identical to that for”, “centrifuged” for “except that typically, less enzyme was used (1-10 μg) and reactions were quenched with an equal volume of ice-cold MeOH. Centrifuged”, “Compounds FIG. 1: 1” for “Products”, “3” for “acceptor macrolide”

OleD S132F = target: T3, OleD S132F (Streptomyces antibioticus, UniProt Q53685, P55A/R82V/R83E/S132F/T84P); test: as above; conditions: for Rate of glucoside formation, S132F: 200 μM acceptor, 1 mM UDPG
T3 construct: made in house; host or cells: E. coli (site-directed mutant of pET28/OleD)
Experimental: as §1, §2, §3, §4
as §2, with “For determination” for “Reaction conditions for assay”, “activity toward” for “macrolide glycosylation were identical to that for”, “centrifuged” for “except that typically, less enzyme was used (1-10 μg) and reactions were quenched with an equal volume of ice-cold MeOH. Centrifuged”, “Compounds FIG. 1: 1” for “Products”, “3” for “acceptor macrolide”

WT OleD = target: T4, WT OleD (Streptomyces antibioticus, UniProt Q53685, P55A/R82V/R83E/T84P); test: as above; conditions: 200 μM acceptor, 1 mM UDPG
T4 construct: made in house; host or cells: E. coli BL21(DE3)pLysS, plasmid pET28/OleD
Experimental: as §1, §2, §3, §4
as §2, with “For determination” for “Reaction conditions for assay”, “activity toward” for “macrolide glycosylation were identical to that for”, “centrifuged” for “except that typically, less enzyme was used (1-10 μg) and reactions were quenched with an equal volume of ice-cold MeOH. Centrifuged”, “Compounds FIG. 1: 1” for “Products”, “3” for “acceptor macrolide”

OleD P67T/S132F/A242V [1] = target: T5, OleD P67T/S132F/A242V (Streptomyces antibioticus, UniProt Q53685, A242V/P67T/S132F); test: as above; conditions: for Rate of glucoside formation, P67T/S132F/A242V: 200 μM acceptor, 1 mM UDPG; for Fold-improvement compared to WT OleD: rate of P67T/S132F/A242V versus WT
T5 construct: made in house; host or cells: E. coli (site-directed mutant of pET28/OleD)
Experimental: as §1, with “8). […]” for “8).”
as §3, §4
as §2, with “For determination” for “Reaction conditions for assay”, “activity toward” for “macrolide glycosylation were identical to that for”, “centrifuged” for “except that typically, less enzyme was used (1-10 μg) and reactions were quenched with an equal volume of ice-cold MeOH. Centrifuged”, “Compounds FIG. 1: 1” for “Products”, “3” for “acceptor macrolide”

OleD P67T/S132F/A242V [2] = target: T5, OleD P67T/S132F/A242V; conditions: Table 3; 4-Me-umb (4) as acceptor, end point assay
Experimental: Reactions were carried out as described above with the following exceptions. The total volume was 50 μl and the acceptor FIG. 1: 4 was at 50 μM and the NDP-sugar at ˜500 μM. The NDP-sugars were used directly from RmlA-catalyzed reactions. […] Reactions were incubated at 25° C. for 3 h.
The total volume was 50 μl and the acceptor FIG. 1: 4 or FIG. 1: 1 was at 50 μM and the NDP-sugar at ˜500 μM. The NDP-sugars were used directly from RmlA-catalyzed reactions. […] Reactions were incubated at 25° C. for 3 h.
For activity toward FIG. 1: 4, aliquots (25 μl) were quenched with 25 μl of an 8:1 mixture of ice-cold MeOH/HCl, and centrifuged at 14,000 rpm for 10 min. […] HPLC peak areas were integrated, and the product concentration calculated as a percent of the total peak area. All products were characterized by LC-MS. Mass spectra were obtained using electrospray ionization on an Agilent 1100 HPLC-MSD SL quadrapole mass spectrometer connected to a UV/Vis diode array detector.

## O=C(O)c1cc2ccc(O)cc2oc1=O [7-hydroxycoumarin-3-carboxylic acid (28), 7-hydroxycoumarin-3-carboxylic acid]
OleD A242V
  Rate of glucoside formation, A242V: 0.01 mmols/product formed/min/μg enzyme × 10^3
OleD P67T
  Rate of glucoside formation, P67T: 0.022 mmols/product formed/min/μg enzyme × 10^3
OleD S132F
  Rate of glucoside formation, S132F: 0.022 mmols/product formed/min/μg enzyme × 10^3
WT OleD
  Rate of glucoside formation, WT: 0.01 mmols/product formed/min/μg enzyme × 10^3
WT OleD; listed as Table 1: 28
  Rate of glucoside formation, WT: essentially non-detectable substrates
OleD P67T/S132F/A242V [1]
  Rate of glucoside formation, P67T/S132F/A242V: 0.62 mmols/product formed/min/μg enzyme × 10^3
OleD P67T/S132F/A242V [1]; UDPG donor
  Fold-improvement compared to WT OleD: 62 fold

## O=C(O)Cc1cc(=O)oc2cc(O)ccc12 [7-hydroxycoumarin-4-acetic acid (27), 7-hydroxycoumarin-4-acetic acid]
OleD A242V
  Rate of glucoside formation, A242V: 0.16 mmols/product formed/min/μg enzyme × 10^3
OleD P67T
  Rate of glucoside formation, P67T: 0.22 mmols/product formed/min/μg enzyme × 10^3
OleD S132F
  Rate of glucoside formation, S132F: 0.08 mmols/product formed/min/μg enzyme × 10^3
WT OleD
  Rate of glucoside formation, WT: essentially non-detectable substrates
OleD P67T/S132F/A242V [1]
  Rate of glucoside formation, P67T/S132F/A242V: 3.6 mmols/product formed/min/μg enzyme × 10^3
OleD P67T/S132F/A242V [1]; UDPG donor
  Fold-improvement compared to WT OleD: >180 fold
OleD P67T/S132F/A242V [1]; UDPG donor, listed as Table 1: 27
  Fold-improvement compared to WT OleD: > 180 fold

## O=c1c(-c2ccc(O)cc2)coc2cc(O)ccc12 [daidzein (31), daidzein]
OleD A242V
  Rate of glucoside formation, A242V: 8.5 mmols/product formed/min/μg enzyme × 10^3
OleD P67T
  Rate of glucoside formation, P67T: 16.0 mmols/product formed/min/μg enzyme × 10^3
OleD S132F
  Rate of glucoside formation, S132F: 5.5 mmols/product formed/min/μg enzyme × 10^3
WT OleD
  Rate of glucoside formation, WT: 4.2 mmols/product formed/min/μg enzyme × 10^3
OleD P67T/S132F/A242V [1]
  Rate of glucoside formation, P67T/S132F/A242V: 24 mmols/product formed/min/μg enzyme × 10^3
OleD P67T/S132F/A242V [1]; UDPG donor
  Fold-improvement compared to WT OleD: 5.7 fold

## O=c1c(-c2ccc(O)cc2)coc2cc(O)cc(O)c12 [genistein (32), genistein]
OleD A242V
  Rate of glucoside formation, A242V: 14.1 mmols/product formed/min/μg enzyme × 10^3
OleD P67T
  Rate of glucoside formation, P67T: 28.8 mmols/product formed/min/μg enzyme × 10^3
OleD S132F
  Rate of glucoside formation, S132F: 8.8 mmols/product formed/min/μg enzyme × 10^3
WT OleD
  Rate of glucoside formation, WT: 3.4 mmols/product formed/min/μg enzyme × 10^3
OleD P67T/S132F/A242V [1]
  Rate of glucoside formation, P67T/S132F/A242V: 26 mmols/product formed/min/μg enzyme × 10^3
OleD P67T/S132F/A242V [1]; UDPG donor
  Fold-improvement compared to WT OleD: 7.7 fold

## O=c1c(O)c(-c2ccc(O)cc2)oc2cc(O)cc(O)c12 [kaempferol (30), kaempferol]
OleD A242V
  Rate of glucoside formation, A242V: 15.3 mmols/product formed/min/μg enzyme × 10^3
OleD P67T
  Rate of glucoside formation, P67T: 99.9 mmols/product formed/min/μg enzyme × 10^3
OleD S132F
  Rate of glucoside formation, S132F: 23 mmols/product formed/min/μg enzyme × 10^3
WT OleD
  Rate of glucoside formation, WT: 13.2 mmols/product formed/min/μg enzyme × 10^3
OleD P67T/S132F/A242V [1]
  Rate of glucoside formation, P67T/S132F/A242V: 28 mmols/product formed/min/μg enzyme × 10^3
OleD P67T/S132F/A242V [1]; UDPG donor
  Fold-improvement compared to WT OleD: 2.1 fold

## CO[C@H]1C[C@H](O[C@H]2[C@H](C)[C@@H](O[C@@H]3O[C@H](C)C[C@H](N(C)C)[C@H]3O)[C@@H](C)C[C@@]3(CO3)C(=O)[C@H](C)[C@@H](O)[C@@H](C)[C@@H](C)OC(=O)[C@@H]2C)O[C@@H](C)[C@@H]1O [oleandomycin (1), oleandomycin]
OleD A242V
  Rate of glucoside formation, A242V: 70 mmols/product formed/min/μg enzyme × 10^3
OleD P67T
  Rate of glucoside formation, P67T: 20 mmols/product formed/min/μg enzyme × 10^3
OleD S132F
  Rate of glucoside formation, S132F: 1487 mmols/product formed/min/μg enzyme × 10^3
OleD S132F; UDPG donor
  activity, fold more than WT OleD: ~2 fold
WT OleD
  Rate of glucoside formation, WT: 700 mmols/product formed/min/μg enzyme × 10^3
OleD P67T/S132F/A242V [1]
  Rate of glucoside formation, P67T/S132F/A242V: 13 mmols/product formed/min/μg enzyme × 10^3
OleD P67T/S132F/A242V [1]; UDPG donor
  glucosylation rate, fold less than the WT enzyme: ~54 fold
  Fold-improvement compared to WT OleD: 0.02 fold

## UDP-2-amino-glc [UDP-2-amino-glc (19)]
OleD P67T/S132F/A242V [2]
  Conversion rates (%), P67T/S132F/A242V: 24%
